Entries after “also recorded” stand apart in the source; their conditions may differ. No end group written: not given here.
What was measured:
[1] = system: LPS-induced acute shock in C57BL/6 mice; assay: LPS-induced acute shock, survival; type: in vivo, mouse; details: for survival rate: within 96 h, LPS + vehicle all died within 30 h, n = 8
Excerpt: (§1) The H. cyanocinctus specimens were captured during September 2005 in the South China Sea near Guangdong Province, People’s Republic of China. After collection, the snakes were killed, and the venom glands were isolated and immediately frozen in liquid nitrogen until use. HEK-293 human embryonic kidney and L929 mouse fibroblast cell lines were obtained from ATCC and cultured in Dulbecco’s modified Eagle’s medium (DMEM, Sigma-Aldrich, St. Louis, MO, USA) containing 10% (v/v) heat-inactivated fetal bovine serum (FBS, Gibco, BRL, Grand Island, NY, USA) at 37 °C in an atmosphere of 5% CO2. The BLT5403 E. coli strain (used as the phage host strain) was from Novagen (Merck) and was cultured at 37 °C for propagation. The specific pathogen-free (SPF) male BALB/c and C57BL/6 mice (both 6–8 weeks old), weighing 20 ± 2 g were purchased from Shanghai SLAC Laboratory Animal Co., Ltd. (Shanghai, China). The mice were housed in animal facilities with 50% humidity under a 12-h light-dark cycle, fed a standard pellet diet, and provided with tap water ad libitum. The animal experimental protocols in this research, including venom gland isolation and the mouse study, were approved by the Animal Care and Use Committee of the Second Military Medical University.
(§2) The LPS-induced acute shock model was established in male C57BL/6 mice (6–8 weeks old) that were randomly allocated to five groups. LPS was administered (15 mg/kg body weight) to induce acute shock. The LPS- or normal saline-treated mice were injected with 100 μL of normal saline with or without LPS intraperitoneally, while the H-TL1 and LPS-treated mice were each administered H-TL1 at three doses of 20, 40, and 80 μg/kg 1, 3, and 5 h after the LPS injection (Figure 5A). The mice were observed every 4 h to evaluate mortality.

[2] = system: DSS-induced colitis in BALB/c mice; assay: DSS-induced acute colitis (symptoms, DAI, body weight, spleen, colon length); type: in vivo, mouse
Excerpt: as §1
To induce colitis, 6–8 week old male BALB/c mice were administered 2.5% DSS solution in their drinking water for 7–8 consecutive days, ad libitum. Importantly, 30–40 kDa DSS was used to establish the animal model in this study because it is known to induce more severe colitis than 5 and 500 kDa DSS [37]. The mice were concomitantly administered H-TL1 (0.5 or 1 mg/kg) once daily for 7–8 consecutive days by intraperitoneal injection. Establishment of the DSS-induced colitis was evidenced by an increase in DAI, with associated weight loss, loose stool consistency, and presence of blood in the feces. DAI was monitored during the entire experiment and was assessed according to the method described in Table 1.

[3] = system: TNF-α/TNFR2; assay: Competitive ELISA, inhibition of TNF-α binding to TNFR2; parameters: species or system human; details: sTNFR2-coated plate, H-TL1 0–1 μM, n = 3
[4] = system: TNF-α expression in lung tissue of LPS-treated mice; assay: Immunohistochemistry, TNF-α in lung tissue; type: in vivo, mouse; details: IHC 400×, n = 8, *** p < 0.001 vs. LPS group
Description: as §2
An additional set of paraffin sections was used for immunohistochemical analysis of TNF-α expression. Sections (5-μm thick) were mounted on slides, cleaned, hydrated, blocked with endogenous peroxidase (Dako, S2001), washed with PBS, and then treated with citrate buffer ([…], pH 6.0) for target antigen retrieval. The sections were treated with a buffered blocking solution (3% BSA in PBS for 15 min), incubated for 1 h at room temperature with a primary polyclonal antibody specific to mouse TNF-α, washed with PBS, and incubated with a secondary HRP-labeled antibody (Abcam) (1:500 in PBS, v/v) at room temperature for 1 h. Then, the sections were washed again with Tris-HCl 0.05 M, pH 7.6, and subsequently incubated with 3,3′-diaminobenzidine (DAB) solution in the dark at room temperature for 10 min. […]

[5] = system: IL-1β-induced phosphorylation of IκB; assay: Western blot, IL-1β-induced phosphorylation of IκB; type: cell-based; details: IL-1β as activator of NF-κB
Excerpt: (§3) The NF-κB and MAPKs pathways are key signaling pathways of TNF-α-mediated inflammation. Therefore, we analyzed the mechanisms underlying H-TL1-induced inhibition of TNF-α-mediated inflammation by Western blotting in HEK-293 cells. […] To identify the specific effects of H-TL1 on TNF-α downstream signaling, we induced IL-1β as a potent activator of NF-κB that is specific to that pathway.
For Western blotting, the cell or tissue specimen extracts were resolved in a 10% SDS-PAGE gel, and then the separated proteins were transferred to a nitrocellulose filter membrane. The antigens were detected by using specific antibodies against total and phosphorylated IκB, p38, ERK, and JNK followed by incubation with the respective secondary antibodies. GAPDH was simultaneously detected as the control to compare the protein loading in each lane. The mouse monoclonal anti-IκB, mouse monoclonal anti-p-IκB (Ser32/36), rabbit monoclonal anti-ERK, and rabbit monoclonal anti-p-ERK (Thr202/Tyr204) antibodies were from Cell Signaling Technologies (Beverly, MA, USA). The mouse polyclonal anti-p-p38 (Thr180/Tyr182), rabbit polyclonal anti-p38, rabbit monoclonal anti-p-JNK (Thr183/Tyr185), and mouse monoclonal anti-JNK antibodies were from Thermo Fisher Scientific (Rockford, IL, USA). […]

[6] = system: mammalian cells; assay: Cytotoxicity toward mammalian cells (general statement); type: cell-based; details: conclusion statement
[7] = system: HEK-293 cells, TNF-α-mediated NF-κB and MAPKs signaling; assay: Western blot, TNF-α-induced phosphorylation in HEK-293 cells; type: cell-based, human; details: TNF-α 20 ng/mL, 10 min
Excerpt: as §3, §1
For Western blotting, the cell or tissue specimen extracts were resolved in a 10% SDS-PAGE gel, and then the separated proteins were transferred to a nitrocellulose filter membrane. The antigens were detected by using specific antibodies against total and phosphorylated IκB, p38, ERK, and JNK followed by incubation with the respective secondary antibodies. GAPDH was simultaneously detected as the control to compare the protein loading in each lane. The mouse monoclonal anti-IκB, mouse monoclonal anti-p-IκB (Ser32/36), rabbit monoclonal anti-ERK, and rabbit monoclonal anti-p-ERK (Thr202/Tyr204) antibodies were from Cell Signaling Technologies (Beverly, MA, USA). The mouse polyclonal anti-p-p38 (Thr180/Tyr182), rabbit polyclonal anti-p38, rabbit monoclonal anti-p-JNK (Thr183/Tyr185), and mouse monoclonal anti-JNK antibodies were from Thermo Fisher Scientific (Rockford, IL, USA). The rabbit monoclonal anti-GAPDH antibody was from Santa Cruz Biotechnology (Santa Cruz, CA, USA), and the fluorescent-labeled secondary antibodies were from Li-COR Biosciences (Lincoln, NE, USA).

ATSKPSLKC-OH [H-TL1]
survival rate ([1]; H-TL1 40 μg/kg at 1, 3, and 5 h after LPS 15 mg/kg i.p., * p < 0.05): 37.5%
survival rate ([1]; H-TL1 80 μg/kg at 1, 3, and 5 h after LPS 15 mg/kg i.p., *** p < 0.001): 62.5%
protection from LPS-induced acute shock, dose dependence ([1]; H-TL1 20, 40, and 80 μg/kg, LPS 15 mg/kg i.p.): protected the mice from LPS-induced acute shock in a dose-dependent manner
recovery / general health ([2]; DSS + H-TL1 1 mg/kg, n = 8): recovered, appearing similar in health to that of the normal group
reduction in colon length ([2]; H-TL1 0.5 mg/kg, n = 8, * p < 0.05 vs. DSS group): significantly attenuated the reduction in colon length
disease activity index (DAI) ([2]; H-TL1 1 mg/kg i.p. once daily, Days 6–8, 2.5% DSS, n = 8, * p < 0.05, ** p < 0.01 vs. DSS group): significantly decreased
loss of body weight ([2]; H-TL1 1 mg/kg i.p. once daily, by Day 8, DSS + vehicle lost an average of 4.3 g more than normal group, n = 8): 1.6 g
symptoms associated with DSS-induced colitis ([2]; H-TL1 1 mg/kg i.p. once daily, vs. vehicle-treated mice): significantly improved
spleen/body weight ratio ([2]; H-TL1 1 mg/kg, n = 8, * p < 0.05 vs. DSS alone): significantly lower
reduction in colon length ([2]; H-TL1 1 mg/kg, n = 8, *** p < 0.001 vs. DSS group): significantly attenuated the reduction in colon length
inhibition of TNF-α/TNFR2 binding, in words [3]: had little impact on TNF-α/TNFR2 interactions; also recorded: the percent inhibition had no apparent linear relation to the H-TL1 concentration
effect on the binding of TNF-α with TNFR2 (inhibition) ([3]; hrTNF-α 20 ng/mL): approximately 20%
TNF-α expression in lung tissue [4]: attenuated this effect
inhibition of IL-1β-induced phosphorylation of IκB [5]: failed to inhibit the phosphorylation of IκB induced by IL-1β
cytotoxicity toward mammalian cells [6]: little cytotoxicity toward mammalian cells
concentration inhibiting TNF-α-mediated ERK (Thr202/Tyr204) phosphorylation [7]: 0.8 to 1.6 µM
concentration inhibiting TNF-α-mediated p38 (Thr180/Tyr182) phosphorylation [7]: 0.8 to 1.6 µM
concentration suppressing TNF-α-mediated IκB (Ser32/36) phosphorylation [7]: 0.4 to 1.6 µM
concentration suppressing TNF-α-mediated JNK (Thr183/Tyr185) phosphorylation [7]: 0.4 to 1.6 µM

Source: PMC5133935, “Hydrostatin-TL1, an Anti-Inflammatory Active Peptide from the Venom Gland of Hydrophis cyanocinctus in the South China Sea” (International Journal of Molecular Sciences, 2016)
